# Assay results: patent publication US5070207A, “Phospholipase A2 inhibitors” (American Home Products Corporation, priority 1990, dated 1991)
# Test system: PLA2 (A. piscivorus piscivorus) induced paw edema
# Test: in vivo PLA2 murine paw edema assay
# Parameters: species or system mouse (male CD-1)
# Conditions: for ED50: Mus musculus, ip
# Description: The ability of the compounds of the invention to inhibit paw edema induced by the exogenous administration of PLA2 is measured in the in vivo PLA2 murine paw edema assay.
# Non-fasted, male CD-1 mice (8 weeks old; 31-36 grams) are placed in plastic boxes in groups of six. The right hind paw volume is measured using mercury plethysmography (zero time). Compounds are dosed orally (0.5 mL of 0.5% Tween-80) 1 or 3 hours prior to PLA2 injection or intravenously (0.2 mL in 0.3% dimethylsulfoxide/saline) 3 minutes prior to PLA2 injection. A solution of purified PLA2, from the diamond back cotton mouth snake (A. piscivorus piscivorus) is prepared in saline at a concentration of 6 μg/mL. Fifty (50) μL (0.3 μg) of this PLA2 solution is injected subcutaneously into the right hind paw with a plastic 1 mL plastic syringe (27 gauge, 1" needle). Paw volume of the injected paw is measured again at 10 minutes, 30 minutes and 60 minutes after PLA2 injection. Animals are euthanized with CO2 at the completion of the study.
# The paw edema is calculated by subtracting the zero time volume from the volume recorded at each time period. Mean paw edema for each treatment group is then calculated and expressed as (μL±S.E.). Drug effects are expressed as a percent change from control (vehicle) values. Statistical significance is determined by a oneway analysis of variance with LSD comparison to control (p<0.05). ED50 's are determined using repression analysis.
compound,measurement,setting,value
"COc1ccc2cc([C@H](C)C(=O)O)ccc2c1 [Naproxen, reference compound]",ED50 at +10 min.,"p.o., standard drugs",18 mg/kg
"CC(C)(C)c1ccc(OCCCC#CC(=O)C(F)(F)F)cc1 [Example 4, 7-[4-(1,1-Dimethylethyl)phenoxy]-1,1,1-trifluoro-3-heptyn-2-one]",% Change in Edema 10 min,30 mg/kg i.p.,-45%
"O=C(C#CCCCOc1ccc(Cl)cc1)C(F)(F)F [Example 1, 7-(4-Chlorophenoxy)-1,1,1-trifluoro-3-heptyn-2-one]",% Change in Edema 10 min,10 mg/kg i.v.,-64%
same,% Change in Edema 30 min,10 mg/kg i.v.,-34%
same,% Change in Edema 60 min,10 mg/kg i.v.,-39%
same,% Change in Edema 10 min,100 mg/kg p.o.,-26%
same,% Change in Edema 30 min,100 mg/kg p.o.,-37%
same,% Change in Edema 60 min,100 mg/kg p.o.,-23%
same,ED50,,3 mg/kg
"COc1cccc2c1cc([N+](=O)[O-])c1c(C(=O)O)cc3c(c12)OCO3 [Aristolochic Acid, reference compound]",ED50 at +10 min.,"p.o., standard drugs",Not Active
"O=C(C#CCCCOc1ccc(F)cc1)C(F)(F)F [Example 3, 1,1,1-Trifluoro-7-(4-fluorophenoxy)-3-heptyn-2-one]",ED50,,30 mg/kg
"O=C(C#CCCCn1c2ccccc2c2ccccc21)C(F)(F)F [Example 2, 7-(9H-Carbazol-9-yl)-1,1,1-trifluoro-3-heptyn-2-one]",ED50,,1 mg/kg
"C[C@@H]1C[C@H]2[C@@H]3CCC4=CC(=O)C=C[C@]4(C)[C@@]3(F)[C@@H](O)C[C@]2(C)[C@@]1(O)C(=O)CO [Dexamethasone, reference compound]",ED50 at +10 min.,"p.o. 3 hr, standard drug",10 mg/kg
Luffarrellolide [reference compound],ED50 at +10 min.,"p.o., standard drugs",Not Active
"O=C(C#CCCCOc1ccc(Cl)cc1)C(F)(F)CCc1ccccc1 [Example 7, 9-(4-Chlorophenoxy)-3,3-difluoro-1-phenyl-5-nonyn-4-one]",ED50,,3 mg/kg
